Counter-ions that a name gives are not always drawn.
Legend:
[1] = molecular target: T1, DM EGFR (DoubleMutantEGFR, L828R/T790M) (Homo sapiens, UniProt P00533, L858R/T790M); experiment: Inhibition of DM EGFR kinase activity (ADP-Glo); format: biochemical; details: for IC50: inhibition of kinase activity, EGFR DM (L828R/T790M); for SI, IC50(WT)/IC50(DM): selectivity index, kinase EGFR WT vs EGFR DM
T1 construct: purchased SignalChem
Procedure, shortened: (§1)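 Luminescent ADP-Glo readout was used for both wild-type and L858R/T790M EGFR, each run 180 minutes at 37° C. Reactions used a solution of 50 μM ATP with 0.5 mg/mL peptide substrate. Four-parameter logistic curves gave IC50.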

[2] = General cytotoxicity on HepG2 cells; format: cell-based; details: human; general cytotoxicity, HepG2 cells, 72 hours, average of several tests
Procedure, shortened: (§2)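 HepG2 cells seeded at 2*10^4 cells per well and compounds added in DMEM with 2% FBS for 72 h at 37 °C. Viability read with Alamar Blue and CC50 derived as for IC50. Therapeutic index taken as HepG2 CC50 over H1975 IC50.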

[3] = system: HepG2 cells; experiment: General cytotoxicity on HepG2 cells; format: cell-based; details: therapeutic index, CC50 HepG2 / IC50 H1975
Procedure, shortened: as §2

[4] = system: A549 (lung adenocarcinoma, WT); experiment: Antiproliferative activity on A549 cells (Alamar Blue); format: cell-based; details: Homo sapiens, antiproliferative test
Procedure, shortened: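 Viability read by Alamar Blue fluorescence (λEx 540, λEm 590 nm) 3-5 h after dye addition, following 72 h compound treatment at 37° C in 2% FBS RPMI-1640, ≤1% DMSO. Seeding 5*10^3 cells/well, 16-18 h attachment. Four-parameter logistic model gave IC50.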

[5] = molecular target: T2, WT EGFR (Wild-Type EGFR) (Homo sapiens, UniProt P00533); experiment: Inhibition of WT EGFR kinase activity (ADP-Glo); format: biochemical
T2 construct: purchased SignalChem
Procedure, shortened: as §1

[6] = Enzyme stability in human liver S9 fractions; format: in vitro ADME; details: 0.5 mg/mL pooled human liver S9 fractions; 10 μM compound; 37° C.; pH 7.4; read-out: Stability in liver S9 fractions, Clint
Procedure, shortened: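 Compound at 10 μM was incubated at 37 °C with 0.5 mg/mL pooled human liver S9, 2 mM β-NAD and 4 mM MgCl2 in 0.1 M sodium phosphate, pH 7.4, then quenched with acetonitrile and analysed chromatographically. T½ and CLint were derived from the slope of log peak area versus time.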

Structure (SMILES) | IC50 [1] | SI, IC50(WT)/IC50(DM) [1] | IC50 [4] | IC50 [5] | Intrinsic clearance in human liver S9 fractions at 10 µM [6] | CC50 at 72 h [2] | TI, CC50/IC50 [3]
C=CC(=O)Nc1cc(Nc2cc(C(=O)c3ccc(N4CCCC4)cc3)ccn2)c(OC)cc1N(C)CCN(C)C [EGFR_3365_56, N-(2-((2-(dimethylamino)ethyl)(methyl)amino)-4-methoxy-5-((4-(4-(pyrrolidin-1-yl)benzoyl)pyridin-2-yl)amino)phenyl)acrylamide] | 6.3 nM | 19.14 | 4540 nM | 121 nM | 9.1 µL/min/mg | 9510 nM | 325
C=CC(=O)Nc1cc(Nc2nccc(C(=O)c3ccc(N4CCN(C)CC4)cc3)n2)c(OC)cc1N(C)CCN(C)C [EGFR_3365_62, N-(2-((2-(dimethylamino)ethyl)(methyl)amino)-4-methoxy-5-((4-(4-(4-methylpiperazin-1-yl)benzoyl)pyrimidin-2-yl)amino)phenyl)acrylamide formate] | 6.58 nM | 19.37 | 12300 nM | 127 nM | 3.7 µL/min/mg | 31100 nM | 512
C=CC(=O)Nc1cc(Nc2nccc(C(=O)c3ccc(OCCC)cc3)n2)c(OC)cc1N(C)CCN(C)C [EGFR_3365_30, N-(2-((2-(dimethylamino)ethyl)(methyl)amino)-4-methoxy-5-((4-(4-propoxybenzoyl)pyrimidin-2-yl)amino)phenyl)acrylamide] | 7.69 nM | 79.77 | 5540 nM | 613 nM | 1.2 µL/min/mg | 10900 nM | 666
C=CC(=O)Nc1cc(Nc2nccc(C(=O)c3ccc(N4CC(OC)C4)cc3)n2)c(OC)cc1N(C)CCN(C)C [EGFR_3365_61, N-(2-((2-(dimethylamino)ethyl)(methyl)amino)-4-methoxy-5-((4-(4-(3-methoxyazetidin-1-yl)benzoyl)pyrimidin-2-yl)amino)phenyl)acrylamide] | 2.76 nM | 19.27 | 23400 nM | 53.1 nM | 12.8 µL/min/mg | 43000 nM | 5296
C=CC(=O)Nc1cc(Nc2cc(C(=O)c3ccc(OCCC)cc3)ccn2)c(OC)cc1N(C)CCN(C)C [EGFR_3365_50, N-(2-((2-(dimethylamino)ethyl)(methyl)amino)-4-methoxy-5-((4-(4-propoxybenzoyl)pyridin-2-yl)amino)phenyl)acrylamide] | 3.29 nM | 9.74 | 4920 nM | 32 nM | 1.1 µL/min/mg | 12400 nM | 262

The next lines start with results.

IC50 [1] | SI, IC50(WT)/IC50(DM) [1] | IC50 [4] | IC50 [5] | Intrinsic clearance in human liver S9 fractions at 10 µM [6] | Structure (SMILES) | CC50 at 72 h [2] | TI, CC50/IC50 [3]
0.75 nM | 43.40 | 5300 nM | 32.3 nM | 23.1 µL/min/mg | C=CC(=O)Nc1cc(Nc2nccc(C(=O)c3ccc(N4CCCCC4)cc3)n2)c(OC)cc1N(C)CCN(C)C [EGFR_3365_90, N-(2-((2-(dimethylamino)ethyl)(methyl)amino)-4-methoxy-5-((4-(4-(piperidin-1-yl)benzoyl)pyrimidin-2-yl)amino)phenyl)acrylamide] | 12800 nM | 1689
9.03 nM | 10.40 | 8140 nM | 93.9 nM | 14.5 µL/min/mg | C=CC(=O)Nc1cc(Nc2nccc(C(=O)c3ccc(OCC)cc3OCC)n2)c(OC)cc1N(C)CCN(C)C [EGFR_3365_68, N-(5-((4-(2,4-diethoxybenzoyl)pyrimidin-2-yl)amino)-2-((2-(dimethylamino)ethyl) (methyl)amino)-4-methoxyphenyl)acrylamide] | 28600 nM | 825
0.94 nM | 24.32 | 10800 nM | 22.9 nM | 15.6 µL/min/mg | C=CC(=O)Nc1cc(Nc2nccc(C(=O)c3ccc(N4CCCC4)cc3)n2)c(OC)cc1N(C)CCN(C)C [EGFR_3365_63, N-(2-((2-(dimethylamino)ethyl)(methyl)amino)-4-methoxy-5-((4-(4-(pyrrolidin-1-yl)benzoyl)pyrimidin-2-yl)amino)phenyl)acrylamide] | 13000 nM | 2239

From patent publication US20200339544A1 (JOINT STOCK COMPANY "BIOCAD", priority 2017, published 2020)
